{"source": "paper PMC11589570", "about": "“Critical assessment of LC3/GABARAP ligands used for degrader development and ligandability of LC3/GABARAP binding pockets” (Nature Communications, 2024)", "key": {"U2OS cells": {"system": "U2OS cells", "assay": "Cell growth assay (IncuCyte confluence over 72 h)", "format": "cell-based", "parameters": "key to U2OS cell growth: % of well area covered by cells (confluence)", "conditions": "for U2OS cell growth: listed as 8F20", "summary_of_the_method": "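U2OS cells were grown in DMEM with 10% FBS for 24 h before treatment. Confluence was then tracked by IncuCyte phase imaging over 72 h and expressed as % of well area covered by cells. Each point is the average of three wells.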"}, "RPE1 cells": {"system": "RPE1 cells", "assay": "Cell growth assay (IncuCyte confluence over 72 h)", "format": "cell-based", "conditions": "for RPE1 cell growth: listed as 8F20", "summary_of_the_method": "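Phase confluence (% area covered by cells) imaged every 2 h for 72 h after compound addition; cells in DMEM/10% FBS, seeded 24 h before treatment. Controls were 0.1% DMSO, 250 nM Torin1 and 200 ng/mL Bafilomycin (final). Each point averages three wells.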"}, "[1]": {"system": "RPE-1 GFP-LC3B-RPF-LC3∆G reporter cell line", "assay": "Autophagy flux assay", "format": "cell-based", "conditions": "rebuttal letter", "text": "LC3/GABARAP in vitro, but no attempts are made to replicate the previously reported cellular activity of these compounds. It would be beneficial to know whether these compounds have any effect on autophagy in the authors’ hands, and therefore could act by alternative mechanisms, or whether they […]\nResponse: We were very concerned that the ligands used for ATTEC development might induce general toxicity in cell lines, as they are based on drugs used in oncology (such as the kinesin inhibitor 10O5) and the isoxazole scaffold often used in the development of multi-targeted kinase inhibitors. However, we have now investigated compounds 1-4 in autophagy flux assays using the RPE-1 GFP-LC3B-RPF-LC3∆G reporter cell line (single clone) as […]\nreported in [PMID:37558952].\n(RR_Figure 6). The authors of the first manuscript reporting these ligands [PMID: 31666698]\nHowever, due to the potent activity of 8F20 on KIF11, which will have profound effects on cell trafficking and growth, and DCAF11 (AN1, [PMID: 38036533]), we find it unlikely that the effects on autophagy are due to LC3/GABARAP modulation. Due to the lack of target (LC3/GABARAP) binding in vitro and the […]\nof this review but have excluded the data in the manuscript.\nRR_figure 5: Autophagy flux measurement for 10O5 and AN2. No induction of autophagy or effects (right panels, assessed by Incucyte (Sartorius) life cell imaging) on cell growth was […]\nRR_figure 6: Autophagy flux measurement for 8F20 and AN1 show changes in autophagy flux […]\nIt is not clear how many biological replicates have been performed. For example, the figure legends […]"}, "LC3A": {"target": "LC3A (Homo sapiens, UniProt Q9H492)", "assay": "Isothermal titration calorimetry (ITC)", "format": "binding", "conditions": "LC3A"}}, "note": "“And” between values parts separate entries of the source, which are not always exact repeats. Identical values can stand only once. “Also recorded” adds a separate entry of the source.", "data": [{"compound": "Cc1ccc(C(=O)N(CCCN)[C@@H](c2nc3cc(Cl)ccc3c(=O)n2Cc2ccccc2)C(C)C)cc1", "note": "[compound 3, (R)-N-(3-aminopropyl)-N-(1-(3-benzyl-7-chloro-4-oxo-3,4-dihydroquinazolin-2-yl)−2-methylpropyl)−4-methylbenzamide]", "values": [{"measurement": "U2OS cell growth", "setting": "U2OS cells; 100 nM, time 34 h", "result": "22.2522 and 20.3197 and 25.5047"}, {"measurement": "U2OS cell growth", "setting": "U2OS cells; 100 nM, time 36 h", "result": "25.043 and 22.9919 and 27.5453"}, {"measurement": "U2OS cell growth", "setting": "U2OS cells; 100 nM, time 38 h", "result": "34.8117 and 27.203 and 36.419"}, {"measurement": "U2OS cell growth", "setting": "U2OS cells; 100 nM, time 40 h", "result": "28.7682 and 25.0593 and 31.2523"}, {"measurement": "U2OS cell growth", "setting": "U2OS cells; 100 nM, time 42 h", "result": "28.8457 and 26.5057 and 32.2617"}, {"measurement": "U2OS cell growth", "setting": "U2OS cells; 100 nM, time 44 h", "result": "31.3439 and 34.6421 and 31.7152"}, {"measurement": "U2OS cell growth", "setting": "U2OS cells; 100 nM, time 46 h", "result": "34.3656 and 30.4353 and 36.3708"}, {"measurement": "U2OS cell growth", "setting": "U2OS cells; 500 nM, time 34 h", "result": "26.6194 and 31.3484 and 27.2425"}, {"measurement": "U2OS cell growth", "setting": "U2OS cells; 500 nM, time 36 h", "result": "31.7612 and 33.804 and 33.4668"}, {"measurement": "U2OS cell growth", "setting": "U2OS cells; 500 nM, time 38 h", "result": "33.118 and 34.4569 and 30.251"}, {"measurement": "U2OS cell growth", "setting": "U2OS cells; 500 nM, time 40 h", "result": "39.6842 and 38.1992 and 33.6035"}, {"measurement": "U2OS cell growth", "setting": "U2OS cells; 500 nM, time 42 h", "result": "36.1441 and 40.2893 and 34.3307"}, {"measurement": "U2OS cell growth", "setting": "U2OS cells; 500 nM, time 44 h", "result": "39.8612 and 39.5559 and 35.4494"}, {"measurement": "U2OS cell growth", "setting": "U2OS cells; 1 uM, time 34 h", "result": "32.3197 and 36.2486 and 28.9643"}, {"measurement": "U2OS cell growth", "setting": "U2OS cells; 1 uM, time 36 h", "result": "35.3333 and 38.6378 and 32.1258"}, {"measurement": "U2OS cell growth", "setting": "U2OS cells; 1 uM, time 38 h", "result": "37.1941 and 39.9036 and 33.4921"}, {"measurement": "U2OS cell growth", "setting": "U2OS cells; 1 uM, time 40 h", "result": "42.2479 and 44.6121 and 35.334"}, {"measurement": "U2OS cell growth", "setting": "U2OS cells; 1 uM, time 42 h", "result": "42.2672 and 42.3728 and 37.7313"}, {"measurement": "U2OS cell growth", "setting": "U2OS cells; 1 uM, time 44 h", "result": "41.5555 and 43.3678 and 38.4367"}, {"measurement": "U2OS cell growth", "setting": "U2OS cells; 1 uM, time 46 h", "result": 37.0733}, {"measurement": "U2OS cell growth", "setting": "U2OS cells; 3 uM, time 34 h", "result": "24.9204 and 26.3201 and 25.7719"}, {"measurement": "U2OS cell growth", "setting": "U2OS cells; 3 uM, time 36 h", "result": "25.7351 and 27.3161 and 28.6407"}, {"measurement": "U2OS cell growth", "setting": "U2OS cells; 3 uM, time 38 h", "result": "25.9027 and 26.3122 and 27.7775"}, {"measurement": "U2OS cell growth", "setting": "U2OS cells; 3 uM, time 40 h", "result": "26.2298 and 26.2214 and 29.7472"}, {"measurement": "U2OS cell growth", "setting": "U2OS cells; 3 uM, time 42 h", "result": "25.5977 and 26.3382 and 29.6536"}, {"measurement": "U2OS cell growth", "setting": "U2OS cells; 3 uM, time 44 h", "result": "26.2297 and 25.3695 and 28.5871"}, {"measurement": "U2OS cell growth", "setting": "U2OS cells; 3 uM, time 46 h", "result": "24.6522 and 24.6058 and 27.1829"}, {"measurement": "U2OS cell growth", "setting": "U2OS cells; 5 uM, time 34 h", "result": "28.2897 and 22.3175 and 29.2635"}, {"measurement": "U2OS cell growth", "setting": "U2OS cells; 5 uM, time 36 h", "result": "23.4225 and 23.0973 and 22.2621"}, {"measurement": "U2OS cell growth", "setting": "U2OS cells; 5 uM, time 38 h", "result": "33.3374 and 20.2415 and 36.6497"}, {"measurement": "U2OS cell growth", "setting": "U2OS cells; 5 uM, time 40 h", "result": "36.8034 and 23.7173 and 40.6411"}, {"measurement": "U2OS cell growth", "setting": "U2OS cells; 5 uM, time 42 h", "result": "29.192 and 24.8481 and 31.1144"}, {"measurement": "U2OS cell growth", "setting": "U2OS cells; 5 uM, time 44 h", "result": "25.7303 and 24.4958 and 26.8332"}, {"measurement": "U2OS cell growth", "setting": "U2OS cells; 5 uM, time 46 h", "result": "31.8475 and 23.3649 and 37.1335"}, {"measurement": "effect on cell growth (confluence)", "setting": "U2OS cells; U2OS, 72 h", "result": "significant growth inhibition in all tested concentrations; also recorded: strongly suppressed cellular growth"}, {"measurement": "RPE1 cell growth", "setting": "RPE1 cells; 500 nM, 34 h", "result": "24 and 12 and 17"}, {"measurement": "RPE1 cell growth", "setting": "RPE1 cells; 500 nM, 36 h", "result": "23 and 14 and 18"}, {"measurement": "RPE1 cell growth", "setting": "RPE1 cells; 500 nM, 38 h", "result": "23 and 14 and 19"}, {"measurement": "RPE1 cell growth", "setting": "RPE1 cells; 500 nM, 40 h", "result": "11 and 16 and 21"}, {"measurement": "RPE1 cell growth", "setting": "RPE1 cells; 500 nM, 42 h", "result": "27 and 16 and 23"}, {"measurement": "RPE1 cell growth", "setting": "RPE1 cells; 500 nM, 44 h", "result": "29 and 17 and 23"}, {"measurement": "RPE1 cell growth", "setting": "RPE1 cells; 500 nM, 46 h", "result": "31 and 17 and 24"}, {"measurement": "RPE1 cell growth", "setting": "RPE1 cells; 500 nM, 48 h", "result": "32 and 17 and 25"}, {"measurement": "RPE1 cell growth", "setting": "RPE1 cells; 500 nM, 54 h", "result": "33 and 17 and 28"}, {"measurement": "RPE1 cell growth", "setting": "RPE1 cells; 1 uM, 34 h", "result": "15 and 25 and 13"}, {"measurement": "RPE1 cell growth", "setting": "RPE1 cells; 1 uM, 36 h", "result": "17 and 25 and 14"}, {"measurement": "RPE1 cell growth", "setting": "RPE1 cells; 1 uM, 38 h", "result": "17 and 24 and 15"}, {"measurement": "RPE1 cell growth", "setting": "RPE1 cells; 1 uM, 40 h", "result": "18 and 20 and 17"}, {"measurement": "RPE1 cell growth", "setting": "RPE1 cells; 1 uM, 42 h", "result": "22 and 27 and 16"}, {"measurement": "RPE1 cell growth", "setting": "RPE1 cells; 1 uM, 44 h", "result": "22 and 28 and 18"}, {"measurement": "RPE1 cell growth", "setting": "RPE1 cells; 1 uM, 46 h", "result": "22 and 28 and 17"}, {"measurement": "RPE1 cell growth", "setting": "RPE1 cells; 1 uM, 48 h", "result": "25 and 32 and 18"}, {"measurement": "RPE1 cell growth", "setting": "RPE1 cells; 1 uM, 50 h", "result": "24 and 32 and 20"}, {"measurement": "RPE1 cell growth", "setting": "RPE1 cells; 1 uM, 54 h", "result": "29 and 33 and 21"}, {"measurement": "RPE1 cell growth", "setting": "RPE1 cells; 1 uM, 56 h", "result": "28 and 34 and 21"}, {"measurement": "RPE1 cell growth", "setting": "RPE1 cells; 1 uM, 58 h", "result": 30}, {"measurement": "RPE1 cell growth", "setting": "RPE1 cells; 3 uM, 34 h", "result": "25 and 15 and 17"}, {"measurement": "RPE1 cell growth", "setting": "RPE1 cells; 3 uM, 36 h", "result": "25 and 16 and 18"}, {"measurement": "RPE1 cell growth", "setting": "RPE1 cells; 3 uM, 38 h", "result": "26 and 17 and 18"}, {"measurement": "RPE1 cell growth", "setting": "RPE1 cells; 3 uM, 40 h", "result": "23 and 18 and 19"}, {"measurement": "RPE1 cell growth", "setting": "RPE1 cells; 3 uM, 42 h", "result": "29 and 18 and 23"}, {"measurement": "RPE1 cell growth", "setting": "RPE1 cells; 3 uM, 44 h", "result": "28 and 20 and 21"}, {"measurement": "RPE1 cell growth", "setting": "RPE1 cells; 3 uM, 46 h", "result": "31 and 19 and 22"}, {"measurement": "RPE1 cell growth", "setting": "RPE1 cells; 3 uM, 48 h", "result": "31 and 19 and 23"}, {"measurement": "RPE1 cell growth", "setting": "RPE1 cells; 3 uM, 50 h", "result": "31 and 20 and 23"}, {"measurement": "RPE1 cell growth", "setting": "RPE1 cells; 3 uM, 52 h", "result": "25 and 22 and 24"}, {"measurement": "RPE1 cell growth", "setting": "RPE1 cells; 3 uM, 54 h", "result": "31 and 21 and 25"}, {"measurement": "RPE1 cell growth", "setting": "RPE1 cells; 3 uM, 56 h", "result": "34 and 19 and 25"}, {"measurement": "RPE1 cell growth", "setting": "RPE1 cells; 5 uM, 40 h", "result": "27 and 15 and 24"}, {"measurement": "effect on cell growth (confluence)", "setting": "RPE1 cells; RPE1, 72 h", "result": "significant growth reduction; also recorded: strongly suppressed cellular growth"}, {"measurement": "autophagy induction (autophagy flux)", "setting": "[1]", "result": "significant autophagy activation"}, {"measurement": "effects on cell growth (Incucyte life cell imaging)", "setting": "[1]", "result": "profound effects on cell growth"}, {"measurement": "outcome of ITC titration", "setting": "LC3A", "result": "did not yield significant binding heats"}]}]}
